Results taken from patent publication US20260001871A1, “TRIAZOLE DERIVATIVES AS MODULATORS OF MAS-RELATED G-PROTEIN RECEPTOR D” (ESCIENT PHARMACEUTICALS, INC., priority 2022, published 2026).

Molecular target: human MRGPRD (Homo sapiens, UniProt Q8TDS7)
Experiment: MRGPRD antagonist activity, IP-One HTRF assay in CHO cells stably expressing human MRGPRD (versus 100 μM β-Alanine agonist)
Format: cell-based
Description: Chinese Hamster Ovary (CHO) cells stably expressing human MRGPRD (Eurofins, San Diego CA) were plated in a 384-well plate at 20,000 cells per well in 12 μL of Optimem (Fisher Scientific 11-058-021). Plates were kept in the incubator at 37° C. overnight. Antagonists were solubilized at a concentration of 10 mM in DMSO, and the agonists were solubilized to stock concentrations of either 50 mM in H2O (β-Alanine) or 10 mM in DMSO (all others) and then diluted in assay buffer (final concentrations of 5.7 mM Tris-HCl, 43 mM NaCl, 50 mM LiCl, pH=8). The concentration of DMSO was normalized across the plate. Antagonists were added to the plate using a Tecan D300 Digital Dispenser at nanoliter/picoliter volumes and 2 μL of agonists in assay buffer were added to each well for a final assay volume of 14 μL. Plates were covered and incubated for 1 h at 37° C. and then for 1 h at room temperature. IP-1 standards and HTRF detection reagents were added according to an IP-One—Gq Kit purchased from Cisbio (part number 621PAPEJ) and incubated in the dark for 1 h at room temperature. Assay plates were read on either a Molecular Devices SpectraMax iD5 plate reader or a BMG ClarioStar plate reader. The HTRF ratio was calculated form the raw data and graphed using GraphPad Prism to calculate IC50 values. Data are expressed as average IC50 values and average percent antagonism calculated as a percent of the maximum efficacy response. For these studies, the variability of the data was assessed by determining the standard error of mean (SEM).
The activity ranges are denoted as follows: “+++++” denotes antagonist activity<100 nM; “++++” denotes antagonist activity between 100 and 500 nM; “+++” denotes activity between 500 and 1000 nM; “++” denotes activity between 1000 and 3000 nM; and “+” denotes activity>3000 nM.

human MRGPRD, sequence (Q8TDS7 whole entry): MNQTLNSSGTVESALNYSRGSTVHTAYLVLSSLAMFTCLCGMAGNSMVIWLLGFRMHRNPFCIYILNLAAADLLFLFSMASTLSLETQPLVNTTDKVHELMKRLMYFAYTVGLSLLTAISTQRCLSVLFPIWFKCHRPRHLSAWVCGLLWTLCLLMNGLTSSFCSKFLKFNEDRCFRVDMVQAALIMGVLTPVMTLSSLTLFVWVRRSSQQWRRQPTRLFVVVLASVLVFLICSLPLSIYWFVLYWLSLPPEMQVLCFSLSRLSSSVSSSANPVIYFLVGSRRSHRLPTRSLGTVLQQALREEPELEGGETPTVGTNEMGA

SMILES | IC50 [nM]
Cc1ccc(-n2nnc(C(=O)Nc3ccnc(C)c3)c2C2CC2)cc1 [Compound 1-4, 5-cyclopropyl-N-(2-methylpyridin-4-yl)-1-(p-tolyl)-1H-1,2,3-triazole-4-carboxamide] | 100 to 500
Cc1ccc(-n2nnc(C(=O)Nc3cc(F)nc(F)c3)c2C2CC2)cc1 [Compound 1-5] | 500 to 1000
Cc1ccc(-n2nnc(C(=O)Nc3cc(C)nc(C)c3)c2C2CC2)cc1 [Compound 1-6] | 500 to 1000
Cc1ccc(-n2nnc(C(=O)Nc3ccnc(F)c3)c2C2CC2)cc1 [Compound 1-7] | 500 to 1000
Cc1ccc(-n2nnc(C(=O)Nc3ccncc3F)c2C2CC2)cc1 [Compound 1-9] | 1000 to 3000
Cc1ccc(-n2nnc(C(=O)Nc3ccncc3)c2C(C)C)cc1 [Compound 1-19] | 500 to 1000
N#Cc1ccc(-n2nnc(C(=O)Nc3ccncc3)c2C2CC2)cc1 [Compound 2-1] | > 3000
Cc1ccc(-n2nnc(C(=O)Nc3ccncc3)c2C2CC2)c(F)c1 [Compound 2-2] | 500 to 1000
O=C(Nc1ccncc1)c1nnn(-c2ccc(-c3ccccc3)cc2)c1C1CC1 [Compound 2-3] | 500 to 1000
COc1ccc(-n2nnc(C(=O)Nc3ccncc3)c2C2CC2)cc1 [Compound 2-4, 5-cyclopropyl-1-(4-methoxyphenyl)-N-(pyridin-4-yl)-1H-1,2,3-triazole-4-carboxamide] | 500 to 1000
Cc1ccc(-n2nnc(C(=O)Nc3ccncc3)c2C2CC2)cc1C [Compound 2-5] | 1000 to 3000
COc1cc(-n2nnc(C(=O)Nc3ccncc3)c2C2CC2)ccc1C [Compound 2-6] | 1000 to 3000
Cc1ccc(-n2nnc(C(=O)Nc3ccncc3)c2C2CC2)c(Cl)c1 [Compound 2-7] | 1000 to 3000
Cc1ccc(-n2nnc(C(=O)Nc3ccncc3)c2C2CC2)c(C)c1 [Compound 2-8] | 1000 to 3000
CC(=O)c1cccc(-n2nnc(C(=O)Nc3ccncc3)c2C2CC2)c1 [Compound 2-9] | 1000 to 3000
CC(=O)c1ccc(-n2nnc(C(=O)Nc3ccncc3)c2C2CC2)cc1 [Compound 2-10] | 1000 to 3000
O=C(Nc1ccncc1)c1nnn(-c2ccc(C3CCCC3)cc2)c1C1CC1 [Compound 2-11] | 1000 to 3000
Cc1ccc(-n2nnc(C(=O)Nc3ccncc3)c2C2CC2)cc1F [Compound 2-13] | > 3000
Cc1cccc(-n2nnc(C(=O)Nc3ccncc3)c2C2CC2)c1 [Compound 2-14] | > 3000
CCc1cccc(-n2nnc(C(=O)Nc3ccncc3)c2C2CC2)c1 [Compound 3-1, 5-cyclopropyl-1-(3-ethylphenyl)-N-(pyridin-4-yl)-1H-1,2,3-triazole-4-carboxamide] | 500 to 1000
CCc1ccc(-n2nnc(C(=O)Nc3ccncc3)c2C2CC2)cc1 [Compound 3-2] | 1000 to 3000
CCc1ccccc1-n1nnc(C(=O)Nc2ccncc2)c1C1CC1 [Compound 3-3] | 1000 to 3000
COc1cccc(-n2nnc(C(=O)Nc3ccncc3)c2C2CC2)c1 [Compound 3-4] | 1000 to 3000

SMILES | IC50 [nM]
Cc1ccc(-n2nnc(C(=O)Nc3ccncc3)c2C2CCC2)cc1 [Compound 3-5] | 500 to 1000
Cc1ccc(-n2nnc(C(=O)Nc3ccncc3)c2C2CCCC2)cc1 [Compound 3-6] | 1000 to 3000
O=C(Nc1ccncc1)c1nnn(-c2cc3ccccc3o2)c1C1CC1 [Compound 4-1] | > 3000
Cc1ccc(-n2nnc(C(=O)Nc3ccnc(C)c3)c2C2CC2)c(Cl)c1 [Compound 4-2, 1-(2-chloro-4-methylphenyl)-5-cyclopropyl-N-(2-methylpyridin-4-yl)-1H-1,2,3-triazole-4-carboxamide] | 100 to 500
O=C(Nc1ccncc1)c1nnn(-c2ccccc2C(F)(F)F)c1C1CC1 [Compound 4-3] | 1000 to 3000
Cc1ccc(-n2nnc(C(=O)Nc3ccncc3)c2C2CC2)cc1O [Compound 4-4] | 1000 to 3000
O=C(Nc1ccncc1)c1nnn(-c2ccc(O)cc2)c1C1CC1 [Compound 4-5] | 1000 to 3000
Cc1ccc(-n2nnc(C(=O)Nc3ccncc3)c2C2CC2)c(C(F)(F)F)c1 [Compound 4-6] | 1000 to 3000
O=C(Nc1ccncc1)c1nnn(-c2cccc(O)c2)c1C1CC1 [Compound 4-7] | 1000 to 3000
O=C(Nc1ccncc1)c1nnn(-c2cc3ccccc3s2)c1C1CC1 [Compound 4-8] | 1000 to 3000
O=C(Nc1ccncc1)c1nnn(C2CCc3ccccc3C2)c1C1CC1 (centres unmarked) [Compound 4-9] | 1000 to 3000
O=C(Nc1ccncc1)c1nnn(-c2csc3ccccc23)c1C1CC1 [Compound 4-10] | 1000 to 3000
O=C(Nc1ccncc1)c1nnn(-c2cccc(-c3ccccc3)c2)c1C1CC1 [Compound 4-11] | 1000 to 3000
CC(C)(C)c1c(C(=O)Nc2ccncc2)nnn1-c1ccc(-c2ccccc2)cc1 [Compound 4-12] | 1000 to 3000
O=C(Nc1ccncc1)c1nnn(-c2ccc(-c3ccccc3)cc2Cl)c1C1CC1 [Compound 4-13] | 500 to 1000
O=C(Nc1ccncc1)c1nnn(-c2ccc3c(c2)CCC3)c1C1CC1 [Compound 5-1] | > 3000
O=C(Nc1ccncc1)c1nnn(-c2ncc(-c3ccccc3)s2)c1C1CC1 [Compound 5-2] | > 3000
O=C(Nc1ccncc1)c1nnn(-c2ccc3ccccc3c2)c1C1CC1 [Compound 5-3] | 500 to 1000
CCc1cc(-n2nnc(C(=O)Nc3ccncc3)c2C2CC2)ccc1C [Compound 5-4, 5-cyclopropyl-1-(3-ethyl-4-methylphenyl)-N-(pyridin-4-yl)-1H-1,2,3-triazole-4-carboxamide] | 500 to 1000
COc1cc(C)ccc1-n1nnc(C(=O)Nc2ccncc2)c1C1CC1 [Compound 5-5] | 500 to 1000
CCc1cc(C)ccc1-n1nnc(C(=O)Nc2ccncc2)c1C1CC1 [Compound 5-6] | 1000 to 3000
Cc1ccc(-n2nnc(C(=O)Nc3ccncc3)c2C2CC2)cc1-c1ccccc1 [Compound 5-7] | 1000 to 3000

The next lines start with the values.

IC50 [nM] | SMILES
1000 to 3000 | O=C(Nc1ccncc1)c1nnn(C2CCCCC2)c1C1CC1 [Compound 6-1]
100 to 500 | O=C(Nc1ccncc1)c1nnn(-c2cccc3ccccc23)c1C1CC1 [Compound 6-2, 5-cyclopropyl-1-(naphthalen-1-yl)-N-(pyridin-4-yl)-1H-1,2,3-triazole-4-carboxamide]
500 to 1000 | O=C(Nc1ccncc1)c1nnn(CC(F)(F)F)c1C1CC1 [Compound 6-3]
1000 to 3000 | COCCn1nnc(C(=O)Nc2ccncc2)c1C1CC1 [Compound 6-4]
1000 to 3000 | O=C(Nc1ccncc1)c1nnn(C2CCCC2)c1C1CC1 [Compound 6-5]
> 3000 | Cc1nnc(-c2ccc(-n3nnc(C(=O)Nc4ccncc4)c3C3CC3)cc2)o1 [Compound 7-1]
> 3000 | CN(C)C(=O)c1ccccc1-c1ccc(-n2nnc(C(=O)Nc3ccncc3)c2C2CC2)cc1 [Compound 7-2]
> 3000 | O=C(Nc1ccncc1)c1nnn(-c2ccc(-c3ncc[nH]3)cc2)c1C1CC1 [Compound 7-3]
> 3000 | N#CCc1ccc(-n2nnc(C(=O)Nc3ccncc3)c2C2CC2)cc1 [Compound 7-4]
> 3000 | Nc1cc(-c2ccc(-n3nnc(C(=O)Nc4ccncc4)c3C3CC3)cc2)n[nH]1 [Compound 7-5]
> 3000 | Cc1ccc(CNC(=O)c2nnn(-c3cccc(-c4ccc(C#N)cc4)c3)c2C2CC2)cn1 [Compound 7-7]
> 3000 | CC(=O)c1ccccc1-c1cccc(-n2nnc(C(=O)Nc3ccncc3)c2C2CC2)c1 [Compound 7-8]
> 3000 | N#Cc1ccc(-c2cccc(-n3nnc(C(=O)NC4(c5cccnc5)CC4)c3C3CC3)c2)cc1 [Compound 7-9]
> 3000 | O=C(NC1(c2cccnc2)CC1)c1nnn(-c2cccc(-c3cnn(C4CCC4)c3)c2)c1C1CC1 [Compound 7-10]
< 100 | Cc1nn(-c2ccccc2)c(C)c1-c1ccc(-n2nnc(C(=O)Nc3ccncc3)c2C2CC2)cc1 [Compound 7-11]
< 100 | Cc1cc(NC(=O)c2nnn(-c3ccc(-c4c(C)nn(C)c4C)cc3)c2C2CC2)ccn1 [Compound 7-12, 5-cyclopropyl-N-(2-methylpyridin-4-yl)-1-(4-(1,3,5-trimethyl-1H-pyrazol-4-yl)phenyl)-1H-1,2,3-triazole-4-carboxamide]
< 100 | Cc1cc(NC(=O)c2nnn(-c3ccc(-c4c(C)nn(C)c4F)cc3)c2C2CC2)ccn1 [Compound 7-13]
< 100 | CCn1nc(C)c(-c2ccc(-n3nnc(C(=O)Nc4ccncc4)c3C3CC3)cc2)c1C [Compound 7-14]
< 100 | Cc1cc(C#N)ccc1-c1ccc(-n2nnc(C(=O)Nc3ccncc3)c2C2CC2)cc1 [Compound 7-15]
< 100 | Cc1nn(C)c(F)c1-c1ccc(-n2nnc(C(=O)Nc3ccncc3)c2C2CC2)cc1 [Compound 7-16]
< 100 | Cc1nn(CC(F)(F)F)c(C)c1-c1ccc(-n2nnc(C(=O)Nc3ccncc3)c2C2CC2)cc1 [Compound 7-17]
< 100 | Cc1nn2ccccc2c1-c1ccc(-n2nnc(C(=O)Nc3ccncc3)c2C2CC2)cc1 [Compound 7-18]
< 100 | Cc1cc(NC(=O)c2nnn(-c3ccc(-c4cnn(Cc5ccccc5)c4)cc3)c2C2CC2)ccn1 [Compound 7-19]
